Data taken from paper PMC9100109, “UnbiasedDTI: Mitigating Real-World Bias of Drug-Target Interaction Prediction by Using Deep Ensemble-Balanced Learning” (Molecules, 2022).

biological target: T1, ACE2: SARS-CoV-2 Spike complex (UniProt P0DTC2+Q9BYF1); test: biochemical; format: binding, human ACE2 / SARS-CoV-2 spike
T1 construct: BPS Bioscience Cat: 79936; inferred from capture on a nickel-coated plate; inferred from detection with anti-mouse Fc-HRP; purchased BPS Bioscience 79936

SMILES	Lab Results	IC50	activity against the complex of the spike protein and ACE2
O=C(CO)N[C@H]1[C@H]([C@H](O)[C@H](O)CO)O[C@](O)(C(=O)O)C[C@@H]1O [N-Glycolylneuraminic, N-glycolylneuraminic acid]	P (key: P: positive (interacting); N: negative (non-interacting))	–	–
CC(=O)N[C@H]1[C@H]([C@H](O)[C@H](O)CO)OC(O)(C(=O)O)C[C@@H]1O (stereo partly shown) [N-acetyl-neuraminic, N-acetyl-neuraminic acid]	P (key: P: positive (interacting); N: negative (non-interacting))	19 nM	–
CC(C)CN(C[C@@H](O)[C@H](Cc1ccccc1)NC(=O)O[C@H]1CO[C@H]2OCC[C@H]21)S(=O)(=O)c1ccc(N)cc1 [darunavir, Darunavir, reference compound]	P (key: P: positive (interacting); N: negative (non-interacting))	5.5 nM	–
N.O=C(O)C(=O)C[C@@H](O)[C@@H](O)[C@H](O)[C@H](O)CO [2-keto-3-deoxyoctonate ammonium salt, 2-Keto-3-deoxyoctonate ammonium salt]	P (key: P: positive (interacting); N: negative (non-interacting))	–	–
CC(=O)N[C@H]1[C@H]([C@H](O)[C@H](O)CO)O[C@](OP(=O)([O-])OC[C@H]2O[C@@H](n3ccc(N)nc3=O)[C@H](O)[C@@H]2O)(C(=O)O)C[C@@H]1O.[Na+] [cytidine-5-monophospho-N-acetylneuraminic acid sodium salt]	P (key: P: positive (interacting); N: negative (non-interacting))	–	–
OC[C@H]1O[C@H](OC[C@H]2O[C@H](OC[C@H]3OC(O)[C@@H](O)[C@@H](O[C@H]4O[C@H](CO)[C@@H](O)[C@H](O)[C@@H]4O)[C@@H]3O)[C@@H](O)[C@@H](O[C@H]3O[C@H](CO)[C@@H](O)[C@H](O)[C@@H]3O)[C@@H]2O)[C@@H](O)[C@@H](O)[C@@H]1O (stereo partly drawn) [3 α ,6 α -Mannopentaose]	N (key: P: positive (interacting); N: negative (non-interacting))	–	inactive
CC(=O)N[C@H]1C(O)O[C@H](CO)[C@@H](O[C@@H]2O[C@H](CO)[C@H](O)[C@H](O)[C@H]2O)[C@@H]1O (stereo partly shown) [N-Acetyllactosamine]	P (key: P: positive (interacting); N: negative (non-interacting))	–	–
